Assays:
Type in all cases: physicochemical
[1] = Light stability, 4 weeks at 25° C. with exposure to daylight, HPLC
Excerpt: A measurement was made of the contents of the salts with resort to HPLC under the same conditions as in the chemical stability test.

[2] = Chemical stability in solid state, accelerated test at 60° C.
[3] = Chemical stability in aqueous state, 25° C., 4 weeks in the dark, HPLC; conditions: distilled water
Protocol: The resulting aqueous solutions were stored at 25° C. for 4 weeks in the dark, after which a measurement was made of the contents of the salts with resort to HPLC under the same conditions as in the solid state.

[4] = Solubility in various solvents at 37° C.; conditions: aqueous buffer, ionic strength 0.2, 37° C., based on the weight of amlodipine

Row | SMILES | Content (HPLC), Stored 4 weeks, 25° C. daylight ([1]; 4 weeks, 25° C., daylight) | Content (HPLC), Initial [1] | Content, storage period 1 week ([2]; 1 week) | Content, storage period 2 weeks ([2]; 2 weeks) | Content, storage period 4 weeks ([2]; 4 weeks) | Content, storage period initial ([2]; initial) | Color change on light exposure ([1]; 4 weeks, 25° C., daylight) | Degraded impurity / content change in aqueous solution [3] | solubility ([4]; pH 3 buffer) | solubility ([4]; pH 4 buffer) | solubility ([4]; pH 6 buffer) | solubility ([4]; pH 7 buffer) | solubility ([4]; pH 8 buffer)
1 | CCOC(=O)C1=C(COCCN)NC(C)=C(C(=O)OC)C1c1ccccc1Cl.Cc1ccc(S(=O)(=O)O)cc1 (stereo not drawn) [Tosylate, Amlodipine Para-toluenesulfonate] | 72.0% | 99.2% | – | – | – | – | – | – | – | – | – | – | –
2 | CCOC(=O)C1=C(COCCN)NC(C)=C(C(=O)OC)C1c1ccccc1Cl (stereo not drawn) [Besylate, Amlodipine Besylate] | 82.5% | 99.2% | 99.6% | 99.4% | 99.2% | 99.6% | turned yellow from white | neither degraded impurity nor content change was found | 3250 µg/mL | 3150 µg/mL | 3190 µg/mL | 1590 µg/mL | 1390 µg/mL
